This passage reports IC50 results from ChEMBL document CHEMBL3886714, “Substituted 4-pyridones and their use as inhibitors of neutrophil elastase activity” (2016).

This assay has as its target T1, Neutrophil elastase (Homo sapiens, UniProt P08246).
T1 sequence (P08246 whole entry): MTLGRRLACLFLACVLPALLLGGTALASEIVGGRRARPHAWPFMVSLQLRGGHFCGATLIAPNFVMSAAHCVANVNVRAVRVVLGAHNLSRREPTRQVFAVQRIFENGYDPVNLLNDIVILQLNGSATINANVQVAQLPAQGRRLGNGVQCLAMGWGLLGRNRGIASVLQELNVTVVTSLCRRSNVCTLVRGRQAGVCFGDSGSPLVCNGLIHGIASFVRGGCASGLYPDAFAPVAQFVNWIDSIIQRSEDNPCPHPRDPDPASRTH
Description: Human Neutrophil Elastase Assay: Compound buffer: 100 mM Tris, 500 mM NaCl, adjusted to pH 7.5; Assay buffer: 100 mM Tris, 500 mM NaCl, adjusted to pH 7.5, containing 0.01% BSA. Test compounds were prediluted in DMSO and subsequently in compound buffer (5% DMSO final). […] After inactivation of the enzyme, fluorescence intensities were measured at 380 nm excitation and 460 nm emission wavelengths.

Structures are written as SMILES.

Turning to `Cc1c(-c2cccc(C(F)(F)F)c2)c(=O)c(C(=O)NCc2ccc(S(C)(=O)=O)s2)cn1C(C)C`, the IC50 amounted to 0.028 µM. With `Cc1c(-c2cccc(C(F)F)c2)c(=O)c(C(=O)NCc2ccc(S(C)(=O)=O)cc2)cn1C1CCOC1` (configuration not stated) the figure was 0.027 µM.
